According to publication PMC11397063, “Subcutaneous Semaglutide during Breastfeeding: Infant Safety Regarding Drug Transfer into Human Milk” (Nutrients, 2024):

Assays:
[1] = cited from earlier work
Text: First, we will contextualize bioavailability in the RID by including these parameters in the RID calculation (RIDF). […] The oral bioavailability of semaglutide is low but unknown per a medical information request at Novo Nordisk (B. Shah, personal communication, 20 June 2024). As such, oral bioavailability will be overestimated using the available parameter for semaglutide formulated with the permeability enhancer, SNAC (F < 0.01), though SNAC will not be present in this scenario [32]. This overestimate will assist in co ... || However, rather than simply converting the weekly dose to an equivalent daily dose, the estimation of RID can be further extrapolated to estimate steady-state conditions over the full week by considering the plasma concentration-time profile of the […]. […] Overgaard et al. published population pharmacokinetic parameters of semaglutide. According to this publication, the disposition of semaglutide after subcutaneous administration follows a 2-compartment model with first-order absorption from the injection ...

breastfed infants = conditions: in vivo
Text: This study utilized data collected from the InfantRisk Human Milk Biorepository (HMB) which has been approved on 22 February 2021 by the institutional ethics committee (A21-4214). The biorepository targets the collection of milk samples and self-related health information for mother and infant dyad via a questionnaire. […] Therefore, we prioritized collecting samples immediately before any dose changes, even if this occurred prior to reaching steady state concentrations, to maximize the informativeness of our analysis. Participants were asked to express milk samples after a minimum of three administrations of the same dose. Milk samples collected from 0, 12, and 24 h post-administration and their corresponding de-identified health questionnaires were released for 8 different individuals from the HMB for this study. If milk samples for multiple doses were provided, samples were only released from the biorepository for the highest dose collected closest to steady-state.

[2] = estimation of relative infant dose (RID, RIDF, RIDFP) from milk; type: in vivo, human; conditions: milk concentration assumed = LLOQ 5.7 ng/mL
Text: The maternal weight-adjusted infant dose, the relative infant dose (RID%), is often used to assess infant exposure to drugs through breastfeeding. This parameter is the percentage of an infant dose of drug via a full diet of human milk relative to the maternal dose (mg/kg) over the same period. An RID of […] is often considered a safety threshold in risk assessments. (1) RID (%)=100 × infant daily oral dose per kg from milk/maternal daily dose per kg
The fraction’s numerator is computed as the product of the measured drug concentration present in milk times estimated milk intake of 150 mL/kg/day.
The RID calculation was adjusted to include parameters for bioavailability and extended dosing intervals, which will improve the interpretation of RID in the setting of subcutaneous semaglutide injection.
First, we will contextualize bioavailability in the RID by including these parameters in the RID calculation (RIDF). […] The oral bioavailability of semaglutide is low but unknown per a medical information request at Novo Nordisk (B. Shah, personal communication, 20 June 2024). As such, oral bioavailability will be overestimated using the available parameter for semaglutide formulated with the permeability enhancer, SNAC (F < 0.01), though SNAC will not be present in this scenario [32]. […]

Structure (SMILES): CC[C@H](C)[C@H](NC(=O)[C@H](Cc1ccccc1)NC(=O)[C@H](CCC(=O)O)NC(=O)[C@H](CCCCNC(=O)COCCOCCNC(=O)COCCOCCNC(=O)CC[C@H](NC(=O)CCCCCCCCCCCCCCCCC(=O)O)C(=O)O)NC(=O)[C@H](C)NC(=O)[C@H](C)NC(=O)[C@H](CCC(N)=O)NC(=O)CNC(=O)[C@H](CCC(=O)O)NC(=O)[C@H](CC(C)C)NC(=O)[C@H](Cc1ccc(O)cc1)NC(=O)[C@H](CO)NC(=O)[C@H](CO)NC(=O)[C@@H](NC(=O)[C@H](CC(=O)O)NC(=O)[C@H](CO)NC(=O)[C@@H](NC(=O)[C@H](Cc1ccccc1)NC(=O)[C@@H](NC(=O)CNC(=O)[C@H](CCC(=O)O)NC(=O)C(C)(C)NC(=O)[C@@H](N)Cc1cnc[nH]1)[C@@H](C)O)[C@@H](C)O)C(C)C)C(=O)N[C@@H](C)C(=O)N[C@@H](Cc1c[nH]c2ccccc12)C(=O)N[C@@H](CC(C)C)C(=O)N[C@H](C(=O)N[C@@H](CCCNC(=N)N)C(=O)NCC(=O)N[C@@H](CCCNC(=N)N)C(=O)NCC(=O)O)C(C)C [semaglutide]
- oral bioavailability (F) ([1]; semaglutide formulated with the permeability enhancer SNAC, used as overestimate): < 0.01
- subcutaneous bioavailability ([1]; subcutaneous): 89%
- infant growth, all infants (breastfed infants): unremarkable
- infant milestones, all infants (breastfed infants): meeting or surpassing expected milestones
- RIDF (%), maximum possible ([2]; Equation (2), mean maternal weight 93 kg, mean 0.56 mg/week SC, F(oral) 0.01, F(S.C.) 89%, weekly dose/7): <1.12%
- maximum dose to the infant possible without detecting semaglutide in milk ([2]; infant milk intake 150 mL/kg/day): 855 ng/kg/day
